The source of these data is PubChem BioAssay (NCI).

Among the test systems are CCRF-CEM leukemia; SR leukemia; SNB-19 CNS; OVCAR-5 ovarian; IGROV1 ovarian; HCT-116 colon; NCI-H460 lung; SN12C renal; HOP-62 NSCLC; TK-10 renal; 786-0 renal; OVCAR-4 ovarian; MCF7 breast; MDA-MB-435; SK-MEL-5 melanoma; RXF 393 renal.
What all share (test): NCI anticancer screen, dose series, 48 h

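Method: 48-hour compound exposure of cells in 96-well plates, five concentrations, linear interpolation of endpoints. TGI is the concentration that stops growth completely.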

With `CC(C)=CCC/C(C)=C/CC/C(C)=C/CC/C(C)=C/CC/C(C)=C\CC/C(C)=C/CC/C(C)=C/CC/C(C)=C/Cc1cc(O)ccc1O`, the TGI was > 34.9 µM with CCRF-CEM leukemia; 1.8 µM in the assay on SR leukemia; > 43.6 µM in the assay with SNB-19 CNS; 36.4 µM in the assay with OVCAR-5 ovarian; 1.47 µM with IGROV1 ovarian; 1.87 µM with HCT-116 colon. Besides, the TGI with NCI-H460 lung is 12.5 µM; with SN12C renal, > 100 µM; in the assay on HOP-62 NSCLC, 29.5 µM; in the assay on TK-10 renal, > 29.4 µM; in the assay with 786-0 renal, 4.09 µM; in the assay on OVCAR-4 ovarian, 7.4 µM. In the assay with MCF7 breast, this molecule gave a TGI of 2.89 µM.
In the case of `COc1ccc(CC2NC(=O)/C=C/CC(C(C)C3OC3c3ccccc3)OC(=O)C(CC(C)C)OC(=O)C(C)CNC2=O)cc1Cl` (configuration not stated), the TGI in the assay on SNB-19 CNS was > 0.1 µM; with OVCAR-5 ovarian, > 0.1 µM; in the assay with HCT-116 colon, > 0.1 µM; in the assay with NCI-H460 lung, 0.00696 µM; in the assay with SN12C renal, > 0.1 µM; with HOP-62 NSCLC, > 0.1 µM. Also, the TGI in the assay with MDA-MB-435 was 1.58e-05 µM; in the assay on SK-MEL-5 melanoma, 0.000657 µM; in the assay on TK-10 renal, > 0.1 µM; in the assay on 786-0 renal, > 0.1 µM; with OVCAR-4 ovarian, > 0.1 µM; in the assay on MCF7 breast, > 0.1 µM.
As to `COc1cc(CNc2ccc(C(C)C)cc2)cc(OC)c1OC`, the TGI was 50.5 µM with CCRF-CEM leukemia; 99.1 µM with SNB-19 CNS; 69.9 µM with OVCAR-5 ovarian; 70 µM in the assay on IGROV1 ovarian; 14.1 µM in the assay on RXF 393 renal; 23.6 µM in the assay on HCT-116 colon. Also, the TGI was 26.5 µM with NCI-H460 lung; 31.4 µM with SN12C renal; 55.1 µM with HOP-62 NSCLC; 27.9 µM in the assay on SK-MEL-5 melanoma; > 100 µM in the assay on TK-10 renal; 30.2 µM in the assay on 786-0 renal. In the assay on OVCAR-4 ovarian, this molecule came in with a TGI of 65.8 µM.
On to `CN(C)Cc1cc(N=Nc2ccccc2)cc(CN(C)C)c1O`, for which the TGI in the assay on CCRF-CEM leukemia is 94.3 µM; in the assay on SR leukemia, > 100 µM; in the assay on SNB-19 CNS it was > 100 µM; in the assay on OVCAR-5 ovarian, > 100 µM; in the assay on IGROV1 ovarian, > 100 µM; in the assay with RXF 393 renal, > 100 µM. In addition, the TGI in the assay with HCT-116 colon, in the assay with NCI-H460 lung, in the assay with SN12C renal, in the assay on HOP-62 NSCLC, with MDA-MB-435 and in the assay on SK-MEL-5 melanoma was > 100 µM throughout. Besides, the TGI in the assay on TK-10 renal, in the assay with 786-0 renal and in the assay with OVCAR-4 ovarian was > 100 µM throughout.
Turning to `O=C(CSC(=S)N1CCOCC1)Nc1nc2c(s1)CCCC2`, the TGI with CCRF-CEM leukemia, in the assay with SR leukemia, in the assay on OVCAR-5 ovarian, in the assay on IGROV1 ovarian, in the assay on HCT-116 colon and with NCI-H460 lung was > 100 µM throughout. Besides, the TGI in the assay on SN12C renal, in the assay with HOP-62 NSCLC, in the assay on SK-MEL-5 melanoma, with TK-10 renal, with 786-0 renal and in the assay on OVCAR-4 ovarian was > 100 µM throughout.
Consider `COC(=O)c1c(C)cccc1CC1Cc2c(C)cccc2C1=O` (configuration not stated), for which the TGI was 90.2 µM in the assay on CCRF-CEM leukemia; > 100 µM in the assay on SNB-19 CNS; > 100 µM in the assay on OVCAR-5 ovarian; > 100 µM in the assay on IGROV1 ovarian; > 100 µM with RXF 393 renal; > 100 µM in the assay with HCT-116 colon. Further, the TGI in the assay on NCI-H460 lung was > 100 µM; in the assay with SN12C renal, > 100 µM; in the assay on HOP-62 NSCLC, > 100 µM; in the assay with MDA-MB-435 it was 65.1 µM; in the assay with SK-MEL-5 melanoma, 37.5 µM; in the assay with TK-10 renal it was > 100 µM. Further, the TGI with 786-0 renal and in the assay on OVCAR-4 ovarian was > 100 µM throughout.
Regarding `CC(C)C1CC(O)O[C@@H]([C@@H](C)[C@H]2CC(=O)[C@@H]3[C@@H]4[C@@H](O)[C@H](O)[C@H]5[C@@H](O)[C@H](O)CC[C@]5(C)[C@H]4CC[C@]23C)C1` (some centres not stated), the TGI is > 100 µM with CCRF-CEM leukemia; > 100 µM in the assay with SR leukemia; > 100 µM in the assay on SNB-19 CNS; > 100 µM in the assay on IGROV1 ovarian; 28.9 µM in the assay with RXF 393 renal; > 100 µM in the assay with HCT-116 colon. Besides, the TGI in the assay on NCI-H460 lung was > 100 µM; with SN12C renal it was > 100 µM; with HOP-62 NSCLC, 61.4 µM; in the assay on SK-MEL-5 melanoma it was > 100 µM; in the assay with TK-10 renal, > 100 µM; in the assay with 786-0 renal, > 100 µM. The TGI in the assay on OVCAR-4 ovarian was > 100 µM.
For `CCC(CC)n1c(C)nc2c1C(=O)c1ccccc1C2=O`, the TGI with CCRF-CEM leukemia is > 100 µM; in the assay with SR leukemia, > 100 µM; in the assay with SNB-19 CNS, > 100 µM; in the assay on IGROV1 ovarian it was > 100 µM; in the assay with RXF 393 renal, > 100 µM; in the assay on HCT-116 colon it was 77.4 µM. Besides, the TGI with NCI-H460 lung was 49.7 µM; in the assay with SN12C renal, > 100 µM; in the assay on HOP-62 NSCLC, > 100 µM; with SK-MEL-5 melanoma, 37.1 µM; with TK-10 renal it was > 100 µM; with 786-0 renal, > 100 µM. Also, the TGI in the assay on OVCAR-4 ovarian was > 100 µM.
With `C(=C\C(SCc1ccccc1)SCc1ccccc1)/c1ccccc1`, the TGI in the assay with CCRF-CEM leukemia, in the assay with SR leukemia, in the assay on SNB-19 CNS, in the assay on IGROV1 ovarian, in the assay with RXF 393 renal and in the assay on HCT-116 colon was > 10 µM in each case. Also, the TGI in the assay on NCI-H460 lung, with SN12C renal, in the assay on HOP-62 NSCLC, with SK-MEL-5 melanoma, in the assay on TK-10 renal and in the assay on 786-0 renal was > 10 µM throughout. Besides, the TGI with OVCAR-4 ovarian and in the assay with MCF7 breast was > 10 µM in each case.
For `COc1ccc(C2S/C(=C\c3ccc(O)cc3)C(=O)N2NC(=O)Cc2ccccc2)cc1` (configuration not stated), the TGI in the assay with CCRF-CEM leukemia, with SR leukemia, in the assay with OVCAR-5 ovarian, with IGROV1 ovarian, with RXF 393 renal and with HCT-116 colon was > 100 µM in each case. In addition, the TGI in the assay with NCI-H460 lung, with SN12C renal, in the assay with HOP-62 NSCLC, in the assay with SK-MEL-5 melanoma, with TK-10 renal and with 786-0 renal was > 100 µM in each case. For the same molecule, the TGI in the assay with OVCAR-4 ovarian was > 100 µM.
